Experimental data from patent US10472352B2, “Rac inhibitors” (Geneyus LLC, priority 2017, dated 2019).

Key:
[1] = test system: Androgen Receptor (AR) luciferase reporter in LNCaP prostate cancer cells; assay: Inhibition of Androgen Receptor Luciferase Expression; format: cell-based; conditions: 10 nM DHT, 4 hours, 1 uM bicalutamide, 1 uM enzalutamide, 5 or 10 uM 0032661
Description: After 4 hours, cell lysate was harvested. 50 μg protein lysates were used in a luciferase assay. The data, shown in FIG. 12, is expressed as relative luciferase units (RLU).

MCF7 breast cancer cells = assay: Tumor Burden, MCF7 tumors in mice; format: in vivo, Nod/Scid-gamma null immunocomprimised mice
Description: MCF7 breast cancer cells grown were innoculated into Nod/Scid-gamma null immunocomprimised mice. The resulting tumors were allowed to reach approximately 100 mm^3 in size and then mice were randomized into vehicle, Faslodex®, 0032661, or Faslodex® plus 0032661 treatment groups. Faslodex® treated mice were dosed with 500 ug Faslodex® once a week via intramuscular injection. 0032661 treated mice were dosed with 35 mg/kg 0032661 five days a week via intraparatoneal injection. Tumors were measured by calipers twice a week.

`FC(F)(F)c1ccc2c(SCCCCCCn3cnc(CN4CCOCC4)c3)ccnc2c1` [Compound 0032661, 4-[[1-[6-[[7-(trifluoromethyl)-4-quinolyl]sulfanyl]hexyl]imidazol-4-yl]methyl]morpholine] was tested, and the “androgen receptor luciferase expression (RLU)” value [1] was “inhibit the androgen receptor luciferase expression”, the “tumor burden, combination” value (MCF7 breast cancer cells; 500 ug Faslodex once a week intramuscular plus 35 mg/kg 0032661 five days a week) was “reduces tumor burden more than either single treatment alone” and the “anti-tumoral effect (tumor size by calipers)” value (MCF7 breast cancer cells; 35 mg/kg five days a week, intraperitoneal) was “strong anti-tumoral effects”.
